pKi: −log10 of the molar value.
Assays:
[1] = target: T1, Mu-type opioid receptor (Homo sapiens, UniProt P35372); experiment: Opiate ??(OP3, MOP) Eurofins Panlabs panel; conditions: Compound concentration 10.0 uM
[2] = target: Glucocorticoid receptor (Homo sapiens) (UniProt P04150); experiment: Glucocorticoid Eurofins Panlabs panel; conditions: Compound concentration 10.0 uM
[3] = target: Prostaglandin E2 receptor EP3 subtype (Homo sapiens) (UniProt P43115); experiment: Prostanoid EP3 Eurofins Panlabs panel; conditions: concentration not given here
[4] = target: Muscarinic acetylcholine receptor M5 (Homo sapiens) (UniProt P08912); conditions: Compound concentration 10.0 uM
Muscarinic acetylcholine receptor M5 (Homo sapiens), sequence (P08912 whole entry): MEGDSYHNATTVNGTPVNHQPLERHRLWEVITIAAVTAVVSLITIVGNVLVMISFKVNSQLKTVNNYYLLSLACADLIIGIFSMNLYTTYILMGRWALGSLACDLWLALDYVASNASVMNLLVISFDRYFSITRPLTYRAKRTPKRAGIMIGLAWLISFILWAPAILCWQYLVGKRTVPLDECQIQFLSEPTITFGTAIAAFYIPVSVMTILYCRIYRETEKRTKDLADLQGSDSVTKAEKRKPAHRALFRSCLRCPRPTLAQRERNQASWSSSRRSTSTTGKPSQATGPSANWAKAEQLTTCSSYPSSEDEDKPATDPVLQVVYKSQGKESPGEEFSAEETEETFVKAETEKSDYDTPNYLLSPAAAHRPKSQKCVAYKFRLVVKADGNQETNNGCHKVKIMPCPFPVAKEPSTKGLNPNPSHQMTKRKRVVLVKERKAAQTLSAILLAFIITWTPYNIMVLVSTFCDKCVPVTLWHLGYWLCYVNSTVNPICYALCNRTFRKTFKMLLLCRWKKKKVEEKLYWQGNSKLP

[5] = target: Estrogen receptor (Homo sapiens) (UniProt P03372); experiment: Estrogen Eralpha Eurofins Panlabs panel; conditions: Compound concentration 10.0 uM
[6] = target: L-type calcium channel, benzothiazepine site (Rattus norvegicus, UniProt P22002+P27732+Q02485); experiment: Calcium Channel L-Type, Benzothiazepine Eurofins Panlabs panel; format: protein assay; conditions: compound concentration 10 uM
[7] = target: 5-hydroxytryptamine receptor 2A (Homo sapiens) (UniProt P28223); experiment: Serotonin (5-Hydroxytryptamine) 5-HT2A Eurofins Panlabs panel; conditions: Compound concentration 10.0 uM
[8] = species on record: Rattus norvegicus; experiment: Imidazoline I2, Central Eurofins Panlabs panel; conditions: Compound concentration 10.0 uM
[9] = target: Adenosine receptor A3 (Homo sapiens) (UniProt P0DMS8); experiment: Adenosine A3 Eurofins Panlabs panel; conditions: Compound concentration 10.0 uM
[10] = target: Sigma non-opioid intracellular receptor 1 (Homo sapiens) (UniProt Q99720); experiment: Sigma1 Eurofins Panlabs panel; conditions: Compound concentration 10.0 uM
[11] = target: T2, D(4) dopamine receptor (Homo sapiens) (UniProt P21917); experiment: Dopamine D4.2 Eurofins Panlabs panel; conditions: Compound concentration 10.0 uM
T2 sequence (whole entry): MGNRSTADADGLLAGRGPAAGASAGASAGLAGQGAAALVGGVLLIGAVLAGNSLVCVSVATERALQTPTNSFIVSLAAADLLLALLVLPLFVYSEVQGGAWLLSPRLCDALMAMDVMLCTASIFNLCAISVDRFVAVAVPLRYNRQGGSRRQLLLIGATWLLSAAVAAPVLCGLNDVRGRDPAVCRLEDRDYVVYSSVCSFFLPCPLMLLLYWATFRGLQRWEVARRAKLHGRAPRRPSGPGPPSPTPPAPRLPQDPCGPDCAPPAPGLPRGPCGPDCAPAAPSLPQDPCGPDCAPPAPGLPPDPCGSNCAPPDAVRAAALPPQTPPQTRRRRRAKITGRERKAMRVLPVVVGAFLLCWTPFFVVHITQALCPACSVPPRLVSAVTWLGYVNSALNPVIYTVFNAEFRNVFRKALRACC

[12] = target: Endothelin receptor type B (Homo sapiens) (UniProt P24530); experiment: Endothelin ETB Eurofins Panlabs panel; conditions: Compound concentration 10.0 uM
[13] = target: Histamine H2 receptor (Homo sapiens) (UniProt P25021); experiment: Histamine H2 Eurofins Panlabs panel; conditions: Compound concentration 10.0 uM
Histamine H2 receptor (Homo sapiens), sequence (P25021 whole entry): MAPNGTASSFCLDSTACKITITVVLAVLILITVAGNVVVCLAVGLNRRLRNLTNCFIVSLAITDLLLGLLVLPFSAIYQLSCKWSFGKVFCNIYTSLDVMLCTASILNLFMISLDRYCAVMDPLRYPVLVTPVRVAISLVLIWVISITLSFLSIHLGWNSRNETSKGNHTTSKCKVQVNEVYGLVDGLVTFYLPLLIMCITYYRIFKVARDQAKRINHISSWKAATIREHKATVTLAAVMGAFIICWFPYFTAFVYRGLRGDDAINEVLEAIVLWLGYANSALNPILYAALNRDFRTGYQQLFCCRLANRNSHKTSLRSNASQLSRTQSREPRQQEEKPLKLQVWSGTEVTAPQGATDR

[14] = target: Delta-type opioid receptor (Homo sapiens) (UniProt P41143); experiment: Opiate delta1 (OP1, DOP) Eurofins Panlabs panel; conditions: Compound concentration 10.0 uM
[15] = target: hERG (KCNH2) potassium channel (Homo sapiens, UniProt Q12809); experiment: Potassium Channel hERG Eurofins Panlabs panel; conditions: compound concentration 10 uM
[16] = target: GABA transporter (Rattus norvegicus) (UniProt P31647+P23978+P31646+P48056); experiment: Transporter, GABA Eurofins Panlabs panel; format: protein assay; conditions: Compound concentration 10.0 uM
[17] = target: cGMP-specific 3',5'-cyclic phosphodiesterase (Homo sapiens, UniProt O76074); experiment: 3H-cAMP and 3H-cGMP Scintillation Proximity Assay (PDE5A)
[18] = target: Kappa-type opioid receptor (Homo sapiens) (UniProt P41145); experiment: Opiate kappa(OP2, KOP) Eurofins Panlabs panel; conditions: Compound concentration 10.0 uM
Kappa-type opioid receptor (Homo sapiens), sequence (P41145 whole entry): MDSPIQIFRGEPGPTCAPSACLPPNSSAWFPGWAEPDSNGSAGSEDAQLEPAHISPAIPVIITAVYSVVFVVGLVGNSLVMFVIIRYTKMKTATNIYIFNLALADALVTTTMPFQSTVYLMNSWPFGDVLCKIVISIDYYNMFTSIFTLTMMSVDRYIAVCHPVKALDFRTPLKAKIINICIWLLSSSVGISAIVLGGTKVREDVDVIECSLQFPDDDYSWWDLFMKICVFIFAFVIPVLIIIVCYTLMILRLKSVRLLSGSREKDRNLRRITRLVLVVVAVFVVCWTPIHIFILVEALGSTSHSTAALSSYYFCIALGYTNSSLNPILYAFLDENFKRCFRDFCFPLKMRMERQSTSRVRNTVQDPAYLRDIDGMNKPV

[19] = target: Alpha-1A adrenergic receptor (Homo sapiens) (UniProt P35348); conditions: Compound concentration 10.0 uM
Alpha-1A adrenergic receptor (Homo sapiens), sequence (P35348 whole entry): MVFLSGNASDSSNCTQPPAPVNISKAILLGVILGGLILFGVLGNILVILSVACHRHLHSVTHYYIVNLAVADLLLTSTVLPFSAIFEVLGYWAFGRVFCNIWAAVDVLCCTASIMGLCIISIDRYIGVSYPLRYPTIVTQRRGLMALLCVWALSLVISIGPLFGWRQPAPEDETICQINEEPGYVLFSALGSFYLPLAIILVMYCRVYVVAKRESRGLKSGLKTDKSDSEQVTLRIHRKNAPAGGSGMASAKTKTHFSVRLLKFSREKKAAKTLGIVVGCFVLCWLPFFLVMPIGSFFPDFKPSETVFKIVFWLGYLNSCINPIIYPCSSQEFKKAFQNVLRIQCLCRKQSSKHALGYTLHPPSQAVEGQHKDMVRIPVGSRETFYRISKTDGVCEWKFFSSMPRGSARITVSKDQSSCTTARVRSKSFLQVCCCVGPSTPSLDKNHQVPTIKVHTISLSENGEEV

[20] = target: Purinergic P2Y (Rattus norvegicus) (UniProt O35811+Q9EPX4+P49651+Q63371+P41232+O35881+Q6GUG4); experiment: Purinergic P2Y Eurofins Panlabs panel; format: protein assay; conditions: Compound concentration 10.0 uM
[21] = target: Alpha-1B adrenergic receptor (Homo sapiens) (UniProt P35368); conditions: Compound concentration 10.0 uM
Alpha-1B adrenergic receptor (Homo sapiens), sequence (P35368 whole entry): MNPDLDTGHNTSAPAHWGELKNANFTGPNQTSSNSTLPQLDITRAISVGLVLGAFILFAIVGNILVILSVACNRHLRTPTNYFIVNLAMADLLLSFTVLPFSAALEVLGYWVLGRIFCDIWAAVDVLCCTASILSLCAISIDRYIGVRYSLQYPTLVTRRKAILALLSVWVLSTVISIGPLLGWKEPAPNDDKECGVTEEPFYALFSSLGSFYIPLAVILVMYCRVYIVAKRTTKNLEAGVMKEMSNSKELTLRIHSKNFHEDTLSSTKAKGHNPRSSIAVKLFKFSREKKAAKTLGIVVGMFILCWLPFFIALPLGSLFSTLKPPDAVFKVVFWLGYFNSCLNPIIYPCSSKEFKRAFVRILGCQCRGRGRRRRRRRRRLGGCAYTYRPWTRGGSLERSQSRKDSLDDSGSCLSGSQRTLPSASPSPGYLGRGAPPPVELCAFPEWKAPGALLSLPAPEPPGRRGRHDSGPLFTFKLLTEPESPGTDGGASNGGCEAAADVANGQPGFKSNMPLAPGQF

[22] = target: Phosphodiesterase PDE1 (Bos taurus, UniProt Q01061+P14100+A0A3Q1MCV4); experiment: 3H-cAMP and 3H-cGMP Scintillation Proximity Assay (PDE1); format: tissue-based, brain
[23] = target: Type-1 angiotensin II receptor (Homo sapiens) (UniProt P30556); experiment: Angiotensin AT1 Eurofins Panlabs panel; conditions: Compound concentration 10.0 uM
[24] = target: 3-hydroxy-3-methylglutaryl-coenzyme A reductase (Homo sapiens) (UniProt P04035); experiment: HMG-CoA Reductase Eurofins Panlabs panel; conditions: Compound concentration 10.0 uM
[25] = target: Insulin receptor (Rattus norvegicus) (UniProt P15127); experiment: Insulin Eurofins Panlabs panel; conditions: Compound concentration 10.0 uM
[26] = target: T3, 5-hydroxytryptamine receptor 1A (Homo sapiens) (UniProt P08908); experiment: Serotonin (5-Hydroxytryptamine) 5-HT1A Eurofins Panlabs panel; conditions: Compound concentration 10.0 uM
T3 sequence (whole entry): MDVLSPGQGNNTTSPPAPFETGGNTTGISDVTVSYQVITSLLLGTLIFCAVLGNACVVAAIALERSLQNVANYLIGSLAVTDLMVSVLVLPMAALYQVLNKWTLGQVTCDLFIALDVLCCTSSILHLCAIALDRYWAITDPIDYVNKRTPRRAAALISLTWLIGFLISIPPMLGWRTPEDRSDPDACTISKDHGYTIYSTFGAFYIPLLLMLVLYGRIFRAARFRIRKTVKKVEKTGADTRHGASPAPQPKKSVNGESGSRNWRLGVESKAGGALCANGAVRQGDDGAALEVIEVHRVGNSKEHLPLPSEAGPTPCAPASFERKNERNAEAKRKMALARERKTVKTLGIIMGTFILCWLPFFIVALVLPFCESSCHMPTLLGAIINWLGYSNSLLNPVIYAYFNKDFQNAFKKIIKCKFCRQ

[27] = target: Endothelin-1 receptor (Homo sapiens) (UniProt P25101); experiment: Endothelin ETA Eurofins Panlabs panel; conditions: Compound concentration 10.0 uM
[28] = target: Nitric oxide synthase, inducible (Mus musculus) (UniProt P29477); experiment: Nitric Oxide Synthetase, Inducible (iNOS) Eurofins Panlabs panel; conditions: Compound concentration 10.0 uM
[29] = target: Voltage-gated sodium channel, site 2 (Rattus norvegicus, UniProt F1LQQ7+O08562+O88420+O88457+P04774+P04775+P08104+P15389+P15390+Q62968); experiment: Sodium Channel, Site 2 Eurofins Panlabs panel; format: protein assay; conditions: compound concentration 10 uM
[30] = target: 3',5'-cyclic-AMP phosphodiesterase 4B (Homo sapiens, UniProt Q07343); experiment: 3H-cAMP and 3H-cGMP Scintillation Proximity Assay (PDE4B)
3',5'-cyclic-AMP phosphodiesterase 4B, sequence (Q07343 whole entry): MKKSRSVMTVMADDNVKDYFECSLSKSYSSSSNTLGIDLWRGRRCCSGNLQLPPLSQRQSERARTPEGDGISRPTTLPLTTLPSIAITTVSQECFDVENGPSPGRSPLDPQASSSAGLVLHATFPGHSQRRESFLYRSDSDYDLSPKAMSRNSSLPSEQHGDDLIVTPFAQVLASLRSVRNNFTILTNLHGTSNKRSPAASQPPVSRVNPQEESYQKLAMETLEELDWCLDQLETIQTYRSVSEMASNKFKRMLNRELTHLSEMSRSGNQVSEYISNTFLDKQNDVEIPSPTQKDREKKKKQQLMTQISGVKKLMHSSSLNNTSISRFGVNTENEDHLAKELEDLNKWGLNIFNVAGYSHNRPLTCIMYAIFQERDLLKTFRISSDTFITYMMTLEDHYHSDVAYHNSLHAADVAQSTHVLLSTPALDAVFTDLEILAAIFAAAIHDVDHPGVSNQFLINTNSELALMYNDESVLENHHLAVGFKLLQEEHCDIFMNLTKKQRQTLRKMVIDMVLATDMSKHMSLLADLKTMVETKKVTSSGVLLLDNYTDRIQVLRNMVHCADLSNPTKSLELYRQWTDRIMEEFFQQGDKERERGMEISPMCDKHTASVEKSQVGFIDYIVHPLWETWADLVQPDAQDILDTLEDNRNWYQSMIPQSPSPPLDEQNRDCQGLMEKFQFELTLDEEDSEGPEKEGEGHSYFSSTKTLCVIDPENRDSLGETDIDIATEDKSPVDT

[31] = target: D(1A) dopamine receptor (Homo sapiens) (UniProt P21728); experiment: Dopamine D1 Eurofins Panlabs panel; conditions: Compound concentration 10.0 uM
[32] = target: B1 bradykinin receptor (Homo sapiens) (UniProt P46663); experiment: Bradykinin B1 Eurofins Panlabs panel; conditions: Compound concentration 10.0 uM
[33] = target: T1, Mu-type opioid receptor; experiment: GPCRScan assay: inhibition of MOR; design: radioligand conc. used [nm] 1.0 – 2.0, parental cells stable HEK
[34] = target: Dual 3',5'-cyclic-AMP and -GMP phosphodiesterase 11A (Homo sapiens, UniProt Q9HCR9); experiment: Panlabs assay PDE11A4; design: compound concentration 10 uM; conditions: at 10 µM
Dual 3',5'-cyclic-AMP and -GMP phosphodiesterase 11A, sequence (Q9HCR9 whole entry, looked up): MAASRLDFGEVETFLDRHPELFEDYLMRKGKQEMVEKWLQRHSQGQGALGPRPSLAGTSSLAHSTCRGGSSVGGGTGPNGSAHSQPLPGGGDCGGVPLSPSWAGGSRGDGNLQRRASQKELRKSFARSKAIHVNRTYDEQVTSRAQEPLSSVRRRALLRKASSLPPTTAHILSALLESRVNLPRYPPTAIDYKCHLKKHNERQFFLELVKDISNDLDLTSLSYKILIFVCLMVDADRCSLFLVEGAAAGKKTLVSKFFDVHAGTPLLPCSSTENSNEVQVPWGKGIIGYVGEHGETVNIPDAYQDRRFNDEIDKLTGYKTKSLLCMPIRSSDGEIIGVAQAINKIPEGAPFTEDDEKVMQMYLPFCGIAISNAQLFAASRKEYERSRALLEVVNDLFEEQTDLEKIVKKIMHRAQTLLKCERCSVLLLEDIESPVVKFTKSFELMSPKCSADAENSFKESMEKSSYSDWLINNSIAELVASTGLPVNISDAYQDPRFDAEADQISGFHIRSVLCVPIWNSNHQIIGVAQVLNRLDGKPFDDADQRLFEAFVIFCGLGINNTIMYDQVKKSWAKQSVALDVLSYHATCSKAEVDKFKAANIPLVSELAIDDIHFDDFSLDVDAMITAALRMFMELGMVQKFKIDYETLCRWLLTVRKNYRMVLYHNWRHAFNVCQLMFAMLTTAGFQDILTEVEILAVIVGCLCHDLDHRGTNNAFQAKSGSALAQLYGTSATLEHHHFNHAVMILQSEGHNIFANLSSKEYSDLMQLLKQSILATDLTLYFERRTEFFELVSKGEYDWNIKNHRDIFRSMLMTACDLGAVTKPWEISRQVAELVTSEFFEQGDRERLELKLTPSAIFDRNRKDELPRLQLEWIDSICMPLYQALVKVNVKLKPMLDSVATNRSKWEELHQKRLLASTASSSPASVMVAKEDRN

[35] = target: High affinity 3',5'-cyclic-AMP phosphodiesterase 7A (Homo sapiens) (UniProt Q13946); experiment: Panlabs assay PDE7A; design: compound concentration 10 uM; conditions: at 10 µM
High affinity 3',5'-cyclic-AMP phosphodiesterase 7A (Homo sapiens), sequence (Q13946 whole entry): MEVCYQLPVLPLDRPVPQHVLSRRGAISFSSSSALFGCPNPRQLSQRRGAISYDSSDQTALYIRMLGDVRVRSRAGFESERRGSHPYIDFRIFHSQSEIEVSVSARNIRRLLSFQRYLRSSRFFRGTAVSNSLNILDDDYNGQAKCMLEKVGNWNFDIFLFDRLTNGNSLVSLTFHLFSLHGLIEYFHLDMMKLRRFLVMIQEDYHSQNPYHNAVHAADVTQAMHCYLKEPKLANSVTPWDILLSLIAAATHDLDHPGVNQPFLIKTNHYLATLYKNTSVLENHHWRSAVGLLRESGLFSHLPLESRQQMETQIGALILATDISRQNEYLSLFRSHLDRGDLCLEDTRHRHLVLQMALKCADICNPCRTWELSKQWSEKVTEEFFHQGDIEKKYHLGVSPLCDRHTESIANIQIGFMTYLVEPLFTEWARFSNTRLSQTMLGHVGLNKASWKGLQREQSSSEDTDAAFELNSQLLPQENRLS

T1 sequence (P35372 whole entry): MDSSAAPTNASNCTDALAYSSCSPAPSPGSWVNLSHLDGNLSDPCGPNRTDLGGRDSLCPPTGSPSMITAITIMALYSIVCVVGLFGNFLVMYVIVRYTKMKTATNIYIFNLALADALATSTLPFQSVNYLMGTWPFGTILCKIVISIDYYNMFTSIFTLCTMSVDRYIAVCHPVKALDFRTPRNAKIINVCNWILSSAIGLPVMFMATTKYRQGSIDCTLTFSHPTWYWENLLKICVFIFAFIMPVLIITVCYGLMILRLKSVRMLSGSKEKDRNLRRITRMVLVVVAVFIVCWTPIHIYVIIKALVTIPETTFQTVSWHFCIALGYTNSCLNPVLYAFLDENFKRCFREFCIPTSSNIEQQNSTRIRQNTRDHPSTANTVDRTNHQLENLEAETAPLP

## CCC[C@H]1CNCc2c1[nH]c(=O)c(C#N)c2N1CCC2(CC1)CC2
[1]
  inhibition: 18.4%
[2]
  inhibition: 4.67%
[3]
  inhibition: 0%
[4]
  inhibition: -6.97%
[5]
  inhibition: 8%
[6]
  inhibition at 10 µM: 18.5%
[7]
  inhibition: 2%
[8]
  inhibition: 32.5%
[9]
  inhibition: 12.5%
[10]
  inhibition: -4%
[11]
  inhibition: 2%
[12]
  inhibition: 8%
[13]
  inhibition: 3%
[14]
  inhibition: 5%
[15]
  inhibition at 10 µM: 18.5%
[16]
  inhibition: 11%
[17]
  IC50: 2.98 µM (not active)
[18]
  inhibition: 24.2%
[19]
  inhibition: 6.38%
[20]
  inhibition: 5%
[21]
  inhibition: 4.43%
[22]
  IC50: 0.753 µM
[23]
  inhibition: 5%
[24]
  inhibition: 8%
[25]
  inhibition: 10%
[26]
  inhibition: 10%
[27]
  inhibition: 3%
[28]
  inhibition: 6%
[29]
  inhibition at 10 µM: -4%
[30]
  IC50: 3.96 µM (not active)
[31]
  inhibition: 1%
[32]
  inhibition: 1%

## CCC[C@@H]1CNCc2c1[nH]c(=O)c(C#N)c2N1CCC2(CC1)CC2
[33]; read-out: Ki
  pKi: 5.33
[33]; read-out: pKi (converted)
  Ki: 4.68 µM
[34]
  inhibition: 1.3%
[35]
  inhibition: -1.6%
